# According to patent US5852190A, “Diazepinoindoles as phosphodiesterase IV inhibitors” (Institut de Recherche Jouveinal SA, priority 1994, dated 1998):
# Biological target: PDE IV
# Experiment: PDE IV inhibition (partially purified enzyme) compared with rolipram
# Assay type: biochemical
# Conditions: enzyme preparation obtained from guinea-pig trachea; same enzyme preparation for rolipram and product
# Protocol: The capacity of the compounds of formula (I) of the invention to inhibit cyclic nucleotide phosphodiesterases is evaluated by measuring their IC50 (concentration of inhibitor required to inhibit enzymatic activity by 50%). In the case of PDEs IV, this value is compared with the IC50 of rolipram, a specific inhibitor of PDE IV, by the ratio of the IC50 of rolipram to the IC50 of the product to be tested, in relation to the same enzyme preparation.
# The different classes of phosphodiesterases are obtained in partially purified form on a DEAE-cellulose column from guinea-pig trachea and dog aorta according to a method adapted from that of W. J. Thompson et al., 1979, Advances in Cyclic Nucleotide Research, Vol. 10: 69-92, ed. G. Brooker et al., Raven Press, New York, and of P. J. Silver et al., 1988, Eur. J. Pharmacol. 150: 85-94.
# Subsequently, the measurement of the enzymatic activity of the different classes of PDE, and in particular of the PDEs IV, is carried out according to a method which is likewise adapted from that of W. J. Thompson, ibidem.
# For the determination of the IC50 the enzymatic activity is measured in the presence of the inhibitor in a range of concentrations from 0.1 to 100 μM.
# The following table illustrates the PDE IV-inhibitory activity in comparison with that of rolipram for an enzyme preparation obtained from guinea-pig trachea.
row,SMILES,IC50 rolipram / IC50 example (PDE IV-inhibitory effect compared with rolipram)
1,"O=C(N[C@@H]1N=C(c2ccccc2)c2cccc3c2N(CC3)C1=O)c1ccccn1 [Example 2P, (3R)-Pyridine-2-carboxylic acid (4-oxo-1-phenyl-3,4,6,7-tetrahydro[1,4]diazepino[6,7,1-hi]indol-3-yl)amide]",1.5
2,"COc1cc2c3c(c1)C(c1ccccc1)=N[C@@H](NC(=O)c1cnc4ccccc4c1)C(=O)N3CC2 [Example 6D, (3R)-Quinoline-3-carboxylic acid (9-methoxy-4-oxo-1-phenyl-3,4,6,7-tetrahydro[1,4]diazepino[6,7,1-hi]indol-3-yl)amide]",1.9
3,"COc1cc2c3c(c1)C(c1ccccc1)=N[C@@H](NC(=O)c1cccc(Cl)c1)C(=O)N3CC2 [Example 6A, (3R)-3-Chloro-N-(9-methoxy-4-oxo-1-phenyl-3,4,6,7-tetrahydro[1,4]diazepino[6,7,1-hi]indol-3-yl)benzamide]",2.7
4,"O=C(N[C@@H]1N=C(c2ccccc2)c2cccc3c2N(CC3)C1=O)c1ccc(F)cc1 [Example 2C, (3R)-4-Fluoro-N-(4-oxo-1-phenyl-3,4,6,7-tetrahydro[1,4]diazepino[6,7,1-hi]indol-3-yl) -benzamide]",1.2
5,"COc1cc2c3c(c1)C(c1ccccc1)=N[C@@H](NC(=O)c1ccc4ncccc4c1)C(=O)N3CC2 [Example 6E, (3R) -Quinoline-6-carboxylic acid (9-methoxy-4-oxo-1-phenyl-3,4,6,7-tetrahydro[1,4]diazepino[6,7,1-hi]indol-3-yl)amide]",1.9
6,"O=C(N[C@@H]1N=C(c2ccccc2)c2cccc3c2N(CC3)C1=O)c1ccc2ncccc2c1 [Example 2T, (3R)-Quinoline-6-carboxylic acid (4-oxo-1-phenyl-3,4,6,7-tetrahydro[1,4]diaze-ino[6,7,1-hi]indol-3-yl)amide]",2.0
7,"COc1cc2c3c(c1)C(c1ccccc1)=NC(NC(=O)c1cc4ccccc4cn1)C(=O)N3CC2 [Example 5, (3R,S)-Isoquinoline-3-carboxylic acid (9-methoxy-4-oxo-1-phenyl-3,4,6,7-tetrahydro[1,4]-diazepino(6,7,1-hilindol-3yl)amide]",1.2
8,"COc1cc(C(=O)N[C@@H]2N=C(c3ccccc3)c3cccc4c3N(CC4)C2=O)cc(OC)c1OC [Example 2M, (3R)-3,4,5-Trimethoxy-N-(4-oxo-1-phenyl-3,4,6,7-tetrahydro[1,4]diazepino[6,7,1-hi]indol-3-yl)-benzamide]",1.3
9,"COc1cc2c3c(c1)C(c1ccccc1)=N[C@@H](NC(=O)c1cc4ccccc4cn1)C(=O)N3CC2 [Example 6F, (3R)-Isoquinoline-3-carboxylic acid (9-methoxy-4-oxo-1-phenyl-3,4,6,7-tetrahydro[1,4]diazepino-[6,7,1-hi]indol-3-yl)amide]",1.2
10,"COc1ccc(Cl)cc1C(=O)N[C@@H]1N=C(c2ccccc2)c2cccc3c2N(CC3)C1=O [Example 2N, (3R) -2-Methoxy-5-chloro-N-(4-oxo-1-phenyl-3,4,6,7-tetrahydro[1,4]diazepino[6,7,1-hi]indol-3-yl)-benzamide]",2.5
11,"O=C(N[C@@H]1N=C(c2ccccc2)c2cccc3c2N(CC3)C1=O)c1cnc2ccccc2c1 [Example 2S, (3R)-Quinoline-3-carboxylic acid (4-oxo-1-phenyl-3,4,6,7-tetrahydro[1,4]diazepino[6,7,1-hi]indol-3-yl)amide]",3.3
12,"COc1cc2c3c(c1)C(c1ccccc1)=N[C@@H](NC(=O)c1ccncc1)C(=O)N3CC2 [Example 6C, (3R)-N-(9-methoxy-4-oxo-1-phenyl-3,4,6,7-tetrahydro[1,4]diaze-ino[6,7,1-hi]indol-3-yl)isonicotinamide]",1.6
13,"CC(=O)Nc1ccc(C(=O)N[C@@H]2N=C(c3ccccc3)c3cccc4c3N(CC4)C2=O)cc1 [Example 2O, (3R)-4-Acetamido-N-(4-oxo-1-phenyl-3,4,6,7-tetrahydro[1,4]diazepino[6,7,1-hi]indol-3-yl)-benzamide]",1.9
14,"O=C(NC1N=C(c2ccccc2)c2cccc3c2N(CC3)C1=O)c1cn2ccccc2n1 (racemic) [Example 1B, (3R,S)-Imidazo[1,2-a]pyridine-2-carboxylic acid N-(4-oxo-1-phenyl-3,4,6,7-tetrahydro1,4]diazepino-[6,7,1-hi]indol-3-yl)amide]",3.7
15,"COc1cc2c3c(c1)C(c1ccccc1)=N[C@@H](NC(=O)c1nnc4cc(C)nn4c1C)C(=O)N3CC2 [Example 6G, (3R)-4.7-Dimethylpyrazolo[5,1-c[]1,2,4]-triazine-3-carboxylic acid (9-methoxy-4-oxo-1-phenyl-3,4,6,7-tetrahydro[1,4]diazepino[6,7,1-hi]indol-3-yl)-amide]",2.2
16,"COc1cc2c3c(c1)C(c1ccccc1)=N[C@@H](NC(=O)c1ccc(Cl)cc1)C(=O)N3CC2 [Example 6B, (3R)-4-Chloro-N-(9-methoxv-4-oxo-1-phenyl-3,4,6,7-tetrahydro[1,4]diazepino[6,7,1-hi]indol-3-yl)benzamide]",1.6
17,"O=C(N[C@@H]1N=C(c2ccccc2)c2cccc3c2N(CC3)C1=O)c1cccc(F)c1 [Example 2B, (3R)-3-Fluoro-N-(4-oxo-1-phenyl-3,4,6,7-tetrahydro[1,4]diazepino[6,7,1-hi]indol-3-yl)-benzamide]",1.2
18,"Cc1cc2nnc(C(=O)N[C@@H]3N=C(c4ccccc4)c4cccc5c4N(CC5)C3=O)c(C)n2n1 [Example 2Y, (3R)-4,7-Dimethyl-pyrazolo[5,1-c][1,2,4]triazine-3-carboxylic acid (4-oxo-1-phenyl-3,4,6,7-tetrahydro[1,4]diazepino[6,7,1-hi]indol-3-yl)amide]",1.4

# Test system: not listed separately
# Experiment: subacute oral toxicity in the rat
# Assay type: in vivo
# Conditions: 100 mg/kg/day for two weeks, 1% aqueous suspension in methyl cellulose
# Description: The subacute oral toxicity of Example 2V was studied in the rat.
row,SMILES,subacute oral toxicity
1,"O=C(N[C@@H]1N=C(c2ccccc2)c2cccc3c2N(CC3)C1=O)c1cc2ccccc2cn1 [Example 2V, (3R)-Isocuinoline-3-carboxylic acid (4-oxo-1-phenyl-3,4,6,7-tetrahdro[1,4]diazerino[6,7,1-hi]indol-3-yl)amide]",showed no activity which could be linked with a toxic effect

# Test system: inflammatory cells
# Experiment: not given
# Conditions: in vitro, rodents; cited from earlier work
row,SMILES,inhibition of the activity of inflammatory cells
1,COc1ccc(C2CNC(=O)C2)cc1OC1CCCC1 (stereo not drawn) [Rolipram],inhibits the activity of inflammatory cells in rodents

# Test system: not given
# Experiment: not given
# Conditions: in use; cited from earlier work
row,SMILES,undesirable effects
1,COc1ccc(C2CNC(=O)C2)cc1OC1CCCC1 (stereo not drawn) [Rolipram],nausea and vomiting
2,Cn1c(=O)c2[nH]cnc2n(C)c1=O [Theophylline],nausea and headaches

# Same assay, conditions: methylxanthines such as theophylline; cited from earlier work
row,SMILES,therapeutic index
1,Cn1c(=O)c2[nH]cnc2n(C)c1=O [Theophylline],low therapeutic index

# Test system: phosphodiesterase
# Experiment: not given
# Conditions: nonspecific inhibitor; cited from earlier work
row,SMILES,inhibition of several classes of phosphodiesterases
1,Cn1c(=O)c2[nH]cnc2n(C)c1=O [Theophylline],inhibit several classes of enzymes
